Some test systems named below: 786-0 renal; A498 renal; A549 NSCLC; BT-549 breast; K-562 leukemia; M14 melanoma; MDA-MB-231 breast; MDA-MB-435; U251 CNS; UACC-62 melanoma.
What all share (test): NCI anticancer screen, dose series, 48 h

SMILES strings stand for the structures.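 Tested at 5 concentrations; 48 h exposure; 96-well plates; endpoints linearly interpolated, else capped at highest concentration. GI50: concentration for 50% inhibition of growth. TGI: total growth inhibition.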 A value given as a limit tells only on which side of the number the result lay.

Turning to `CCCN(CCC)c1ccc(/C=C/c2ccc3cc(OCC)ccc3n2)cc1`, the GI50 with 786-0 renal was greater than 100 µM; with A498 renal, greater than 100 µM; in the experiment with A549 NSCLC, 75.4 µM; in the experiment with BT-549 breast, greater than 100 µM; in the experiment on K-562 leukemia, 9.37 µM; in the experiment on M14 melanoma, greater than 100 µM. In addition, the GI50 in the experiment with MDA-MB-231 breast is greater than 100 µM; with MDA-MB-435 it was greater than 100 µM; in the experiment with U251 CNS it was 48.5 µM; in the experiment on UACC-62 melanoma, 72.8 µM. Moreover, the TGI in the experiment on 786-0 renal, in the experiment on A498 renal, in the experiment with A549 NSCLC, in the experiment with BT-549 breast, with K-562 leukemia and with M14 melanoma was greater than 100 µM in each case. In addition, the TGI with MDA-MB-231 breast, in the experiment on MDA-MB-435, with U251 CNS and in the experiment on UACC-62 melanoma was greater than 100 µM in each case.
`COc1cccc(/C=C/[N+](=O)[O-])c1`: the GI50 with 786-0 renal was 1.9 µM; with A498 renal, 3.54 µM; in the experiment with A549 NSCLC, 5.06 µM; in the experiment with BT-549 breast it was 1.86 µM; in the experiment with K-562 leukemia it was 2.92 µM; with M14 melanoma, 2.01 µM. Besides, the GI50 is 6.41 µM in the experiment on MDA-MB-231 breast, 2.69 µM with MDA-MB-435, 4.04 µM in the experiment on U251 CNS and 3.29 µM in the experiment with UACC-62 melanoma. For the same molecule, the TGI is 4.06 µM in the experiment on 786-0 renal; 16.5 µM with A498 renal; 25.4 µM with A549 NSCLC; 3.99 µM with BT-549 breast; 11.5 µM in the experiment on K-562 leukemia; 4.63 µM in the experiment on M14 melanoma. Further, the TGI was determined as 20.8 µM in the experiment on MDA-MB-231 breast, 9.28 µM in the experiment on MDA-MB-435, 14.8 µM in the experiment with U251 CNS and 12.8 µM in the experiment on UACC-62 melanoma.
On to `CC(=O)N1C/C(=C/c2ccc(Cl)cc2)C(=O)/C(=C/c2ccc(Cl)cc2)C1`, for which the GI50 was 0.575 µM in the experiment with 786-0 renal; 1.41 µM with A498 renal; 0.633 µM in the experiment with A549 NSCLC; 0.435 µM with BT-549 breast; 0.335 µM in the experiment with K-562 leukemia; 0.735 µM with M14 melanoma. Further, the GI50 was 1.15 µM with MDA-MB-231 breast, 0.43 µM in the experiment with MDA-MB-435, 0.337 µM with U251 CNS and 0.664 µM with UACC-62 melanoma. In addition, the TGI was 1.87 µM with 786-0 renal; 2.89 µM with A498 renal; 4.5 µM in the experiment with A549 NSCLC; 1.32 µM with BT-549 breast; greater than 100 µM with K-562 leukemia; 2.11 µM in the experiment with M14 melanoma. Further, the TGI in the experiment with MDA-MB-231 breast was found to be 3.23 µM; in the experiment with MDA-MB-435, 1.82 µM; with U251 CNS, 1.18 µM; with UACC-62 melanoma it was 1.84 µM.
Take `O=c1cc(N2CCN(CCCCCOc3cc(O)c4c(=O)cc(-c5ccccc5)oc4c3)CC2)c2ccccc2o1`: the GI50 with 786-0 renal is 6.92 µM; in the experiment with A498 renal it was greater than 100 µM; in the experiment on A549 NSCLC, greater than 100 µM; with BT-549 breast it was 57.9 µM; in the experiment on K-562 leukemia, 15.4 µM; in the experiment with M14 melanoma, 53.2 µM. Further, the GI50 was 13.1 µM in the experiment with MDA-MB-231 breast, 47.2 µM with MDA-MB-435, greater than 100 µM with U251 CNS and 36.2 µM in the experiment with UACC-62 melanoma. The TGI in the experiment on 786-0 renal, in the experiment on A498 renal, with A549 NSCLC, with BT-549 breast, in the experiment on K-562 leukemia and in the experiment with M14 melanoma was greater than 100 µM in each case. Moreover, the TGI in the experiment on MDA-MB-231 breast, in the experiment with MDA-MB-435, in the experiment on U251 CNS and with UACC-62 melanoma was greater than 100 µM in each case.
As to `CC(C)C[C@H](NC(=O)Cn1ccc(NCc2ccccc2)cc1=O)B(O)O`, the GI50 in the experiment on 786-0 renal was 2.02 µM; with A498 renal, 0.234 µM; with A549 NSCLC it was 5.15 µM; in the experiment with BT-549 breast, 0.431 µM; with K-562 leukemia it was 3.48 µM; in the experiment with M14 melanoma, 1.35 µM. Besides, the GI50 was 3.18 µM with MDA-MB-231 breast, 0.335 µM with MDA-MB-435, 6.3 µM in the experiment with U251 CNS and 1.6 µM with UACC-62 melanoma. For the same molecule, the TGI in the experiment on 786-0 renal was greater than 40.1 µM; in the experiment on A498 renal, 1.59 µM; with A549 NSCLC it was greater than 100 µM; in the experiment with BT-549 breast, 2.59 µM; in the experiment with K-562 leukemia, greater than 100 µM; in the experiment on M14 melanoma it was 7.08 µM. For the same molecule, the TGI in the experiment on MDA-MB-231 breast was 19.8 µM; in the experiment with MDA-MB-435 it was 1.29 µM; in the experiment with U251 CNS it was greater than 100 µM; in the experiment on UACC-62 melanoma it was 11.1 µM.
For `Cc1cc(-c2nc3sccn3c2/C=N/N=C(N)N)c(C)s1`, the GI50 in the experiment with 786-0 renal is 15.7 µM; in the experiment on A498 renal, 18.8 µM; with A549 NSCLC it was 25.5 µM; in the experiment with BT-549 breast, 18.5 µM; in the experiment on K-562 leukemia, 15.1 µM; in the experiment with M14 melanoma, 15.8 µM. The GI50 with MDA-MB-231 breast is 15.3 µM; in the experiment on MDA-MB-435 it was 13.3 µM; in the experiment on U251 CNS, 18 µM; in the experiment with UACC-62 melanoma, 14.9 µM. For the same molecule, the TGI amounted to 29.1 µM in the experiment with 786-0 renal; 33.9 µM in the experiment on A498 renal; 51 µM in the experiment on A549 NSCLC; 33.3 µM in the experiment on BT-549 breast; 39.1 µM with K-562 leukemia; 29.3 µM in the experiment with M14 melanoma. Also, the TGI in the experiment with MDA-MB-231 breast was found to be 29 µM; in the experiment with MDA-MB-435, 26.1 µM; in the experiment on U251 CNS, 32.9 µM; in the experiment on UACC-62 melanoma, 28.2 µM.
On to `CNC/C(Cl)=N/S(=O)(=O)c1ccc(C)cc1`, for which the TGI in the experiment with 786-0 renal was 25.2 µM; with A498 renal, 54.4 µM; in the experiment on A549 NSCLC, 51.4 µM; with BT-549 breast, 51.7 µM; in the experiment with K-562 leukemia, greater than 100 µM; in the experiment with M14 melanoma, 39.7 µM. In addition, the TGI in the experiment with MDA-MB-231 breast stood at 28.5 µM; in the experiment on MDA-MB-435, 21.5 µM; in the experiment on U251 CNS it was 20.5 µM; in the experiment on UACC-62 melanoma, 21.9 µM.
Consider `Nc1c2c(c(O)c3c1=C(CO)C=N3)=NCCS2`, for which the GI50 in the experiment on 786-0 renal is 0.317 µM; in the experiment with A498 renal it was 0.148 µM; in the experiment with A549 NSCLC it was 0.0561 µM; in the experiment on BT-549 breast, 0.175 µM; in the experiment with K-562 leukemia it was 0.243 µM; in the experiment with M14 melanoma, 0.0839 µM. Besides, the GI50 with MDA-MB-231 breast is 0.296 µM; in the experiment with MDA-MB-435, 0.0521 µM; with U251 CNS, 0.18 µM; in the experiment with UACC-62 melanoma it was 0.156 µM. In addition, the TGI in the experiment with 786-0 renal is 1.23 µM; with A498 renal, 0.285 µM; with A549 NSCLC, 0.219 µM; with BT-549 breast, 0.317 µM; in the experiment with K-562 leukemia, 0.682 µM; with M14 melanoma, 0.215 µM. Besides, the TGI in the experiment on MDA-MB-231 breast amounted to 0.834 µM; with MDA-MB-435 it was 0.169 µM; in the experiment with U251 CNS, 0.329 µM; with UACC-62 melanoma, 0.33 µM.
